Reference: article PMC7181660, “A novel specific PERK activator reduces toxicity and extends survival in Huntington's disease models” (Scientific Reports, 2020)
pEC50: −log10 of the molar value.

Assays:
ATF4 = ATF4 protein levels by immunoblot in STHdh^Q7/7 cells; type: cell-based, murine; conditions: high MK-28 concentration
Description: STHdh^Q7/7 and STHdh^Q111/111 cells were treated with different concentrations of MK-28. The concentration range was chosen in accordance to previous studies with A4. Cells were lysed with PBS containing 1% Triton X-100, 0.5% Sodium deoxycholate with protease and phosphatase inhibitors cocktails. Cocktail 2 and 3 (Sigma) were added to the lysis buffer for detection of phosphorylated proteins and lysates were incubated on ice for 30 minutes, then centrifuged at 16,000xg for 30 minutes a 4 °C. […] Immunoblotting, detection by ECL and quantitation was done as described previously.

PERK (EIF2AK3) = biological target: T1, PERK (EIF2AK3) (Homo sapiens, UniProt Q9NZJ5); test: In vitro HotSpot kinase assay on isolated PERK; type: biochemical; conditions: isolated PERK, 1 μM ATP; read-out: EC50 of PERK activation
T1 construct: GST; purchased Life technologies, Carlsbad, CA; host or cells: insect cells
T1 sequence (Q9NZJ5 536-1116): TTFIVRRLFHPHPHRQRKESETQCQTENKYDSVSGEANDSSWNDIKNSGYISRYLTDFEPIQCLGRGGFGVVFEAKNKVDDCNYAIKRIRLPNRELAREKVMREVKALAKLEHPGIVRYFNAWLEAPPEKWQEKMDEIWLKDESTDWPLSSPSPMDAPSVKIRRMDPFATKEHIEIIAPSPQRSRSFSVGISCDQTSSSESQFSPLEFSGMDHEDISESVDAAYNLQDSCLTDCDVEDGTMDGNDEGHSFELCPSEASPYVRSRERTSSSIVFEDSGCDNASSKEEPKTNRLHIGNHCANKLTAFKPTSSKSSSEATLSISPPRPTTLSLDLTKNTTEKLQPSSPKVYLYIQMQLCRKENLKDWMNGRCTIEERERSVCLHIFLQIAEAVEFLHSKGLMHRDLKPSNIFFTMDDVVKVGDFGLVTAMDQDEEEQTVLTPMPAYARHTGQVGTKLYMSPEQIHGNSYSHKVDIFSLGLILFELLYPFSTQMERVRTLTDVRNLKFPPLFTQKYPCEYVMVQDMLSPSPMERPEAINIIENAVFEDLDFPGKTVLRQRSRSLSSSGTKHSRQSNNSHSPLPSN
Description: (§1) In vitro kinase assays with purified components and full kinase panel analysis was done at Reaction Biology Corp. (Malvern, PA, USA) using the HotSpot Kinase Assay. Reactions were performed for 20 min at room temp. using ^33P-ATP (Specific activity 10 μCi/μl) with 1 μM total ATP, 20 μM substrate and kinases in the nanomolar range in 20 mM Hepes (pH 7.5), 10 mM MgCl2, 1 mM EGTA, 0.02% Brij35, 0.02 mg/ml BSA, 0.1 mM Na3VO4, 2 mM DTT, 1% DMSO and other required factors depending on the assayed kinase.

EIF2AK4 (GCN2) = EIF2AK4 (GCN2) (Homo sapiens, UniProt Q9P2K8); test: In vitro HotSpot kinase assay on GCN2; type: biochemical; conditions: plateau considered reached at 10 µM; read-out: EC50 of GCN2 activation
Chain of EIF2AK4 (GCN2) (Q9P2K8 whole entry): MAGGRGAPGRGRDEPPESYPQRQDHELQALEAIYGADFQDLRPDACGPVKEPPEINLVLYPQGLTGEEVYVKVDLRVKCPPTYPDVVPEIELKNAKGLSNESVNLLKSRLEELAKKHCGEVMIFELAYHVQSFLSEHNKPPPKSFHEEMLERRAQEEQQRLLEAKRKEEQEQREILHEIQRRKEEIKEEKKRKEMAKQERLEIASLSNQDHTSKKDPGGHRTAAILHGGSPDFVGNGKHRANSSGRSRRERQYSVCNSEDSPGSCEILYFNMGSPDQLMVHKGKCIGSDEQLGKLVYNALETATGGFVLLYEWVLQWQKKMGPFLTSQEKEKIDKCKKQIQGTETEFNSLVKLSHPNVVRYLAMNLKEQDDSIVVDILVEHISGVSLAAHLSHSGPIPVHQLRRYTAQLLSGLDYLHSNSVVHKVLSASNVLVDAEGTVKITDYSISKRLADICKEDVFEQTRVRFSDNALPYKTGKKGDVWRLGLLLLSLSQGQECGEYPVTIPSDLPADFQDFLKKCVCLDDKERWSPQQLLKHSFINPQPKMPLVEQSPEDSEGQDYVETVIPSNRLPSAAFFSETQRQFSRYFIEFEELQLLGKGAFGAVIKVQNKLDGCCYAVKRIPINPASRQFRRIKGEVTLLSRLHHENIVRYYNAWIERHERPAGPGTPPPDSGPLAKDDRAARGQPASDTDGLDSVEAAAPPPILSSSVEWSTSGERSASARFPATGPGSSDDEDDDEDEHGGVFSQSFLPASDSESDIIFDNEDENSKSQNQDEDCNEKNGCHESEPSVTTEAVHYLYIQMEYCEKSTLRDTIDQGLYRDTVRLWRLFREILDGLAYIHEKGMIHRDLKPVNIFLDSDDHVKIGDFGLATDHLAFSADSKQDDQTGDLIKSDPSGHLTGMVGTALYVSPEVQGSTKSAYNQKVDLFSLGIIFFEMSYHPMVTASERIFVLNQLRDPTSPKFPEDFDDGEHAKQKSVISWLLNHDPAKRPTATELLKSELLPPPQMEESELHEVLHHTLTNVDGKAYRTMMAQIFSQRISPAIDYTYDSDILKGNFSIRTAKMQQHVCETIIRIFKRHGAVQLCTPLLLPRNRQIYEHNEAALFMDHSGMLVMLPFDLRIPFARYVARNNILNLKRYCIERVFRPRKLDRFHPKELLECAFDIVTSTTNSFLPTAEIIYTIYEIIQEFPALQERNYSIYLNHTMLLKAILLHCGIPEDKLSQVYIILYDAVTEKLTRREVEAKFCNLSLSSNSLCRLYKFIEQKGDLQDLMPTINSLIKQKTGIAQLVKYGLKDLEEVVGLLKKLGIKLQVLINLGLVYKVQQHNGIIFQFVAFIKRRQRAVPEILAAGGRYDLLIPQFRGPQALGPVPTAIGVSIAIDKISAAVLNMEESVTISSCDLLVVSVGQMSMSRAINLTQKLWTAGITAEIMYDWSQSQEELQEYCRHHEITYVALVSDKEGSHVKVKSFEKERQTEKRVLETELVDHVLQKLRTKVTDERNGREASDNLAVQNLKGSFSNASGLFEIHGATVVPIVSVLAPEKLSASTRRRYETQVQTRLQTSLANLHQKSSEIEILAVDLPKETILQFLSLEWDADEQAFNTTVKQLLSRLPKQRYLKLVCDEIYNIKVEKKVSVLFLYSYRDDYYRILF
Description: as §1, with “kinase. […]” for “kinase.”
was calculated from the data in Fig. 3. Note that for the calculation for GCN2, we considered […]
Suppl. Fig. S3. Modulation of PERK by A4. A4 was tested for its effect on isolated PERK in vitro, showing a weak activating effect in the nanomolar range. (performed at Reaction Biology Corp. using the HotSpot Kinase Assay).
(1 picture or pasted object on this page, not shown here)

EIF2AK1 (HRI) = EIF2AK1 (HRI) (Homo sapiens, UniProt Q9BQI3); test: In vitro HotSpot kinase assay on HRI; type: biochemical
Chain of EIF2AK1 (HRI) (Q9BQI3 whole entry): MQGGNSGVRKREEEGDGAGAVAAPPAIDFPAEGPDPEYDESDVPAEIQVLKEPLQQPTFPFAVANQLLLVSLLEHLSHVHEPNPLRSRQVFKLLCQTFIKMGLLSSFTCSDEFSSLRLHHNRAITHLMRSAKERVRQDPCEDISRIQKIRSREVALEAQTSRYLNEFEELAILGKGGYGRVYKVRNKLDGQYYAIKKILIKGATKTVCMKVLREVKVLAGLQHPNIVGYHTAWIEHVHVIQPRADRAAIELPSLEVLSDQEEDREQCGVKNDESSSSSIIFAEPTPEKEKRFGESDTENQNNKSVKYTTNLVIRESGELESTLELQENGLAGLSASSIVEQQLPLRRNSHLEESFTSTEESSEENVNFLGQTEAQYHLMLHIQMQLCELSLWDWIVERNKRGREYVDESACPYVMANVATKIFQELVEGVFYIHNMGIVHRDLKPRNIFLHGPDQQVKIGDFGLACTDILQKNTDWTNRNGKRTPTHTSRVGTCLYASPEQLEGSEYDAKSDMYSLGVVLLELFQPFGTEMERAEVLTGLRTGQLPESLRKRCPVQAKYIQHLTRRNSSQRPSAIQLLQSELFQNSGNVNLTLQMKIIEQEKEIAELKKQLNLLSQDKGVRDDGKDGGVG
Description: as §1

B6 wild type mice = test: Toxicity study, 2 weeks continuous subcutaneous Alzet pump delivery; type: in vivo; conditions: 6 mg/kg, 2 weeks continuous subcutaneous delivery
Description: (§2) Alzet pumps model 1004 (Alzet, USA), with a rate of 0.11 µl/hour and 28 days effective compound delivery was used. MK-28 compound was dissolved in 1:1 DMSO/PEG400 and prepared to delivery subcutaneously 6 mg/kg MK-28 for toxicity studies (n = 8) or 1 mg/kg for therapeutic evaluation in R6/2 mice (n = 72). For toxicity studies mice receiving six times the therapeutic dose of MK-28 or vehicle were weighed every two days for two consecutive weeks. […]. Alzet pumps were implanted in 4 weeks old mice and MK-28 was administered at 1 mg/kg with continuous dosing for 28 days. […]

[1] = Body weight during therapeutic study (Alzet minipumps); type: in vivo, mice; conditions: 1 mg/kg subcutaneous minipump, 7 weeks after pump implantation
Description: as §2

R6/2 HD mouse model [2] = test: Blood glucose levels; type: in vivo, mice; conditions: TG + MK-28
Description: For blood glucose measurements, blood samples from all the evaluated groups (n = 34) were obtained from the tail and measured with the Accu-Check glucose monitor (Roche Diagnostics, USA). Two independent glucose measurements were performed at the same hour 3 and 12 weeks after birth corresponding to the asymptomatic and symptomatic stages respectively. Glucose levels are expressed in mg/dl.

R6/2 HD mouse model [3] = test: Survival of R6/2 mice; type: in vivo
Description: All experimental procedures were approved by and conducted in strict compliance with the Institutional Animal Care and Use Committee of Tel Aviv University. Mice were kept in a 12/12-hour light/dark cycle with food and water ad libitum. […]. At three weeks mice were assessed for CAG repeat size using the following primer set: 5’-[…]-3′ and 5′-[…] G-3′. Following Jackson laboratories guidelines, wild type (WT) and TG littermates were kept combined in the same minimally-enriched cages (with cardboard rolls and gauze pads), and after week 8 water and mushed food were placed at the ground level for all the cages. Male mice treatment groups were coded and remained blind to the observers throughout the experiment. Power calculations determined that 16 mice per group was the minimum required to see at least a 20% increase (alpha 0.05, beta 0.2, power 80%) in motor performance and survival of R6/2 mice with MK-28 subcutaneous delivery compared to vehicle. Multiple endpoints were prospectively selected, consistent with the analyses we here report. Data collection was ended before signs of animal suffering or inability to thrive appear.
as §2

[4] = R6/2 TG, 1 mg/kg subcutaneous 28 days

SMILES: CN(/N=C\c1ccc(O)c(O)c1)c1nc(-c2ccccc2)cc(-c2ccccc2)n1 [MK-28]
- increase of ATF4 protein levels (ATF4): up to 2.5 fold
- pEC50 (PERK (EIF2AK3)): 6.31
- pEC50 (EIF2AK4 (GCN2)): 5.46
- effect on EIF2AK1 (HRI) activity (EIF2AK1 (HRI)): little or no effect
- toxic effects (B6 wild type mice): No toxic effects
- weight, MK-28 vs vehicle [1]: no significant differences
- glucose increase ratio between disease stages (symptomatic vs asymptomatic) (R6/2 HD mouse model [2]): 109.60 ± 5.04%
- extension of median survival and death initiation (R6/2 HD mouse model [3]; 28-day treatment in young R6/2 mice): 10%
- survival curve ratio (Gehan-Breslow-Wilcoxon test) (R6/2 HD mouse model [3]; 95% CI 0.7726 to 4.611): 1.887
- delay of death initiation (R6/2 HD mouse model [3]; [4]): 10 days
- increase of median survival compared to controls (R6/2 HD mouse model [3]; [4]): 8 days
- median survival (R6/2 HD mouse model [3]; [4]): 97 days
